#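 A five-concentration, 48-hour dose response in 96-well plates underlies each endpoint, interpolated linearly between surrounding concentrations. The concentration for full growth arrest is given as TGI.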
# Columns and labels:
# Assay in all cases: NCI anticancer screen, dose series, 48 h
# [1] = test system: 786-0 renal
# [2] = test system: A498 renal
# [3] = test system: A549 NSCLC
# [4] = test system: ACHN renal
# [5] = test system: BT-549 breast
# [6] = test system: CAKI-1 renal
# [7] = test system: CCRF-CEM leukemia
# [8] = test system: COLO 205 colon
# [9] = test system: DLD-1 colon
# [10] = test system: DMS 114 small cell lung
# [11] = test system: DMS 273 small cell lung
# [12] = test system: DU-145 prostate
# [13] = test system: EKVX NSCLC
# [14] = test system: HCC-2998 colon
# [15] = test system: HCT-116 colon
# [16] = test system: HCT-15 colon
# [17] = test system: HL-60(TB) leukemia
# [18] = test system: HOP-62 NSCLC
# [19] = test system: HOP-92 NSCLC
# [20] = test system: HS 578T breast
# [21] = test system: HT29 colon
# [22] = test system: IGROV1 ovarian
# [23] = test system: K-562 leukemia
# [24] = test system: KM12 colon
# [25] = test system: KM20L2 colon
# [26] = test system: LOX IMVI melanoma
# [27] = test system: LXFL 529 NSCLC
# [28] = test system: M14 melanoma
# [29] = test system: M19-MEL melanoma
# [30] = test system: MALME-3M melanoma
# [31] = test system: MCF7 breast
# [32] = test system: MDA-MB-231 breast
# [33] = test system: MDA-MB-435
# [34] = test system: MDA-N
# [35] = test system: MOLT-4 leukemia
# [36] = test system: NCI-H226 lung
# [37] = test system: NCI-H23 lung
# [38] = test system: NCI-H460 lung
# [39] = test system: NCI-H522 lung
# [40] = test system: NCI/ADR-RES ovarian
# [41] = test system: OVCAR-3 ovarian
# [42] = test system: OVCAR-4 ovarian
# [43] = test system: OVCAR-5 ovarian
# [44] = test system: OVCAR-8 ovarian
# [45] = test system: PC-3 prostate
# [46] = test system: RPMI-8226 leukemia
# [47] = test system: RXF 393 renal
# [48] = test system: SF-268 CNS
# [49] = test system: SF-295 CNS
# [50] = test system: SF-539 CNS
# [51] = test system: SK-MEL-2 melanoma
# [52] = test system: SK-MEL-28 melanoma
# [53] = test system: SK-MEL-5 melanoma
# [54] = test system: SK-OV-3 ovarian
# [55] = test system: SN12C renal
# [56] = test system: SNB-19 CNS
# [57] = test system: SNB-75 CNS
# [58] = test system: SNB-78 CNS
# [59] = test system: SR leukemia
# [60] = test system: SW-620 colon
# [61] = test system: T-47D breast
# [62] = test system: TK-10 renal
# [63] = test system: U251 CNS
# [64] = test system: UACC-257 melanoma
# [65] = test system: UACC-62 melanoma
# [66] = test system: UO-31 renal
compound,measurement,setting,value
C/C(=N\N)C(CN1CCOCC1)C(c1ccccc1)c1c(O)c2ccccc2oc1=O (centres undefined),TGI,[1],> 100 µM
same,TGI,[2],> 100 µM
same,TGI,[3],> 100 µM
same,TGI,[4],> 100 µM
same,TGI,[5],> 100 µM
same,TGI,[6],> 100 µM
same,TGI,[7],> 100 µM
same,TGI,[8],> 63.5 µM
same,TGI,[9],> 100 µM
same,TGI,[10],> 100 µM
same,TGI,[11],> 100 µM
same,TGI,[12],> 100 µM
same,TGI,[13],> 100 µM
same,TGI,[14],> 100 µM
same,TGI,[15],> 100 µM
same,TGI,[16],> 100 µM
same,TGI,[17],> 100 µM
same,TGI,[18],> 100 µM
same,TGI,[19],> 100 µM
same,TGI,[20],> 100 µM
same,TGI,[21],> 100 µM
same,TGI,[22],> 100 µM
same,TGI,[23],> 100 µM
same,TGI,[24],> 100 µM
same,TGI,[25],> 100 µM
same,TGI,[26],> 31.6 µM
same,TGI,[27],> 100 µM
same,TGI,[28],> 100 µM
same,TGI,[29],> 100 µM
same,TGI,[30],> 100 µM
same,TGI,[31],> 100 µM
same,TGI,[32],> 100 µM
same,TGI,[33],> 100 µM
same,TGI,[34],> 100 µM
same,TGI,[35],> 80.8 µM
same,TGI,[36],> 100 µM
same,TGI,[37],> 100 µM
same,TGI,[38],> 100 µM
same,TGI,[39],> 100 µM
same,TGI,[40],> 100 µM
same,TGI,[41],> 100 µM
same,TGI,[42],> 100 µM
same,TGI,[43],> 100 µM
same,TGI,[44],> 100 µM
same,TGI,[45],> 100 µM
same,TGI,[46],> 100 µM
same,TGI,[47],> 51.9 µM
same,TGI,[48],> 100 µM
same,TGI,[49],> 100 µM
same,TGI,[50],> 100 µM
same,TGI,[51],> 100 µM
same,TGI,[52],> 100 µM
same,TGI,[53],> 100 µM
same,TGI,[54],> 100 µM
same,TGI,[55],> 100 µM
same,TGI,[56],> 100 µM
same,TGI,[57],> 100 µM
same,TGI,[58],> 100 µM
same,TGI,[59],> 100 µM
same,TGI,[60],> 100 µM
same,TGI,[61],> 100 µM
same,TGI,[62],> 100 µM
same,TGI,[63],> 100 µM
same,TGI,[64],> 100 µM
same,TGI,[65],> 100 µM
same,TGI,[66],> 100 µM
NC1=Nc2ccccc2Sc2nccn21,TGI,[1],57.9 µM
same,TGI,[2],75.8 µM
same,TGI,[3],> 100 µM
same,TGI,[4],91 µM
same,TGI,[5],> 100 µM
same,TGI,[6],64.9 µM
same,TGI,[7],75.3 µM
same,TGI,[8],35.4 µM
same,TGI,[12],> 100 µM
same,TGI,[13],> 100 µM
same,TGI,[14],43 µM
same,TGI,[15],> 100 µM
same,TGI,[16],59.7 µM
same,TGI,[17],45 µM
same,TGI,[18],57.4 µM
same,TGI,[19],40.8 µM
same,TGI,[20],79.1 µM
same,TGI,[21],65.1 µM
same,TGI,[22],> 100 µM
same,TGI,[23],50 µM
same,TGI,[24],69.9 µM
same,TGI,[26],32.3 µM
same,TGI,[28],32.8 µM
same,TGI,[30],34.6 µM
same,TGI,[31],> 100 µM
same,TGI,[32],35.9 µM
same,TGI,[33],59 µM
same,TGI,[34],59.7 µM
same,TGI,[35],49.4 µM
same,TGI,[36],48.1 µM
same,TGI,[37],52.2 µM
same,TGI,[38],> 100 µM
same,TGI,[39],44.3 µM
same,TGI,[40],72 µM
same,TGI,[41],66 µM
same,TGI,[42],> 100 µM
same,TGI,[43],> 100 µM
same,TGI,[44],> 100 µM
same,TGI,[45],65 µM
same,TGI,[46],44.5 µM
same,TGI,[47],56.5 µM
same,TGI,[48],88.4 µM
same,TGI,[49],43.7 µM
same,TGI,[50],56.1 µM
same,TGI,[51],> 100 µM
same,TGI,[52],> 100 µM
same,TGI,[53],33.6 µM
same,TGI,[54],> 100 µM
same,TGI,[55],> 100 µM
same,TGI,[56],> 100 µM
same,TGI,[57],54.3 µM
same,TGI,[59],80.8 µM
same,TGI,[60],> 100 µM
same,TGI,[61],98.9 µM
same,TGI,[62],72.6 µM
same,TGI,[63],96.2 µM
same,TGI,[64],75 µM
same,TGI,[65],> 100 µM
same,TGI,[66],63.9 µM
O=C1NCN(c2ccccc2)C12CCN(CCCN1CCN(CCOC(c3ccccc3)c3ccccc3)CC1)CC2,TGI,[1],2.31 µM
same,TGI,[2],6.55 µM
same,TGI,[3],7.82 µM
same,TGI,[4],5.88 µM
same,TGI,[5],7.37 µM
same,TGI,[6],7.43 µM
same,TGI,[7],3.59 µM
same,TGI,[8],2.26 µM
same,TGI,[12],7 µM
same,TGI,[13],7.24 µM
same,TGI,[14],1.02 µM
same,TGI,[15],5.67 µM
same,TGI,[16],5.19 µM
same,TGI,[17],4.31 µM
same,TGI,[18],6.6 µM
same,TGI,[19],5.54 µM
same,TGI,[20],7.97 µM
same,TGI,[21],4.22 µM
same,TGI,[22],7.4 µM
same,TGI,[23],1.09 µM
same,TGI,[24],5.97 µM
same,TGI,[26],6.18 µM
same,TGI,[28],3.86 µM
same,TGI,[30],5.54 µM
same,TGI,[31],6.23 µM
same,TGI,[32],7.25 µM
same,TGI,[33],2.46 µM
same,TGI,[34],2.12 µM
same,TGI,[35],6.4 µM
same,TGI,[36],7.35 µM
same,TGI,[37],7.46 µM
same,TGI,[38],7.45 µM
same,TGI,[39],4.66 µM
same,TGI,[40],8.91 µM
same,TGI,[41],6.93 µM
same,TGI,[42],7.47 µM
same,TGI,[43],10.1 µM
same,TGI,[44],6.51 µM
same,TGI,[45],7.69 µM
same,TGI,[46],5.23 µM
same,TGI,[47],4.68 µM
same,TGI,[48],5.77 µM
same,TGI,[49],6.41 µM
same,TGI,[50],2.48 µM
same,TGI,[51],6.75 µM
same,TGI,[52],2.42 µM
same,TGI,[53],2.35 µM
same,TGI,[54],7.12 µM
same,TGI,[55],7.14 µM
same,TGI,[56],7.77 µM
same,TGI,[57],5.46 µM
same,TGI,[59],2.04 µM
same,TGI,[60],5.95 µM
same,TGI,[61],7.18 µM
same,TGI,[62],7.15 µM
same,TGI,[63],7.45 µM
same,TGI,[64],2.7 µM
same,TGI,[65],7.69 µM
same,TGI,[66],4.39 µM
